Values of other authors, collected in patent publication US20140045801A1, “PRAMIPEXOLE TRANSDERMAL DELIVERY FOR SEVERE HEADACHES” (MYLAN INC., priority 2012, published 2014).

Settings: free base; moderate lipophilicity

- log P: 2.35
Compound: CCCN[C@H]1CCc2nc(N)sc2C1 [Pramipexole free base, Pramipexole]
